Source: patent publication US20100240642A1, “1H-Indole-2-Carboxylic Acid Derivatives Useful As PPAR Modulators” (SMITHKLINE BEECHAM CORPORATION, priority 2006, published 2010)
Where two headings read alike, the source gives them in different places.

Target: T1, hPPARγ receptor (Homo sapiens, UniProt P37231)
T1 construct: expressed in transfected cells; host or cells: CV-1 (African Green Monkey kidney, ATCC CCL-70)
T1 sequence (P37231 172-475 isoform P37231-2): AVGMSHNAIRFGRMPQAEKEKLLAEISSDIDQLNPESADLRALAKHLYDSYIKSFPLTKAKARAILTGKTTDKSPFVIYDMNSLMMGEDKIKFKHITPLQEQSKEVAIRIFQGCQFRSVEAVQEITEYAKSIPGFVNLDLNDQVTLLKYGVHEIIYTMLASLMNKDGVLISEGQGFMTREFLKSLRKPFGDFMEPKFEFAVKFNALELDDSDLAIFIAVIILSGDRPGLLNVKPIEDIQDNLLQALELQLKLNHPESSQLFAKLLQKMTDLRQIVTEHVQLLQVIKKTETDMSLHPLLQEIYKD
Assay: PPARγ Cell-based luciferase assay
Text: Plasmids—PCR primers containing Kpnl and BamHI restriction sites were used to amplify PPARγ ligand binding domain (LBD) fragment (172-475) from a full-length human clone. The LBD fragment was ligated into the multiple cloning site of pFA-CMV (Stratagene). The resulting construct (pFA-CMV-GAL4-hPPARγLBD carried a fusion of the LBD with the yeast-derived GAL4 DNA-binding domain under the control of the CMV immediate early promoter. Reporter construct UAStkLuc carries a single 17 bp (CGGAGTACTGTCCTCCG) upstream activating sequence (UAS), the tk minimal promoter, and the firefly luciferase gene. The integrity of each construct was confirmed by diagnostic restriction digestion and by sequencing. Plasmid DNA was prepared using Qiagen Maxi-Prep kits.
PPARγ Cell-based luciferase assay—African Green Monkey kidney cell line CV-1 (ATCC CCL-70) was maintained in Dulbecco's Modified Eagle's Medium (D-MEM) containing 10% fetal bovine serum, 2 mM glutamine, and 1% penicillin/streptomycin (pen/strep). In preparation for luciferase assays, CV-1 cells were grown in charcoal-stripped cell medium containing D-MEM/F-12 medium supplemented with 5% or 3% dextran-treated/charcoal-stripped (CS) fetal bovine serum, 2 mM glutamine, with or without 1% pen/strep, as described below. CS fetal bovine serum was purchased from Hyclone; all other cell culture reagents were from Gibco.
The luciferase protocol is a multi-day procedure. On day 1, confluent cells in maintenance medium were subcultured 1:10 into T-175 cm^2 flasks containing 50 mL of 3% CS medium with pen/strep. These flasks were allowed to incubate at 5% CO2 and 37° C. for 72 hours.
Cells were harvested by trypsinization and then transfected using FuGENE (Roche) according to the manufacturer's specifications. Briefly, each transfection contained 0.55 μg pFA_CMV_GAL4_hPPARγ_LBD plasmid, 10.9 μg UAStkLUC, and 24 μg pBluescript (carrier DNA). Plasmid DNA was mixed with FuGENE in OptiMEM-1 medium and incubated for 30 min at room temperature. During this incubation, cells were harvested into 3% CS medium without pen-strep and dispensed at 14 million cells per T-175 cm^2 flask. Transfection mixes were added to the flasks and incubated overnight at 5% CO2 and 37° C.
Transfected cells were added to 384-well plates containing pharmacological agents. Rosiglitazone standard was reconstituted in DMSO at 1 mM. For 11-point dose-response experiments, the compounds were 3-fold serially diluted in DMSO and then stamped to 384-well assay plates (NUNC, catalog #164564) at 0.5 μL/well using a Beckman FX. DMSO and agonist control compound Rosiglitazone (1 mM) were each stamped at 0.5 μL/well to columns 23 and 24, respectively, of the 384-well plates. Transfected cells were harvested in 5% CS medium with pen/strep and dispensed at 10,000 cells/well (50 μL) onto the prepared 384-well compound plates using a Titertek Multidrop. Following overnight incubation at 5% CO2 and 37° C., Steady-Glo reagent (Promega) was added to the assay plates using a Multidrop. Plates were incubated for 10 min to ensure complete cell lysis and read in a ViewLux (PerkinElmer). […] Partial agonism is defined here as 20-80% activation (relative to full agonist rosiglitazone) at concentrations of 10^−6 M or less.

[1] = CV-1 cells transfected with GAL4-hPPARγ LBD and UAStkLuc, at concentrations of 10^−6 M or less, read-out: agonism of the hPPARγ receptor (activation relative to full agonist rosiglitazone)

SMILES | Emax [1] | Emax (CV-1, read-out: agonism of the hPPARγ receptor (activation relative to full agonist rosiglitazone))
CC(C)(C)c1ccc(-c2c(C(=O)O)n(Cc3cc(O)cc(OCC4CC4)c3)c3ccccc23)cc1 [Example 3, 1-({3-[(cyclopropylmethyl)oxy]-5-hydroxyphenyl}methyl)-3-[4-(1,1-dimethylethyl)phenyl]-1H-indole-2-carboxylic acid] | 20 to 80% | 
CC(C)(C)OC(=O)NS(=O)(=O)N1CCN(c2cccc(Cn3c(C(=O)O)c(-c4ccc(C(C)(C)C)cc4)c4ccccc43)c2)CC1 [Example 38, 1-[(3-{4-[({[(1,1-dimethylethyl)oxy]carbonyl}amino)sulfonyl]-1-piperazinyl}phenyl)methyl]-3-[4-(1,1-dimethylethyl)phenyl]-1H-indole-2-carboxylic acid] | 20 to 80% | 
Cc1ccc(-c2cccc(C(=O)NCCc3cccs3)c2)cc1Cn1c(C(=O)O)c(-c2ccc(C(C)(C)C)cc2)c2ccccc21 [Example 31] | 20 to 80% | 
COCCOc1cc(Cn2c(C(=O)O)c(-c3ccc(C(C)(C)C)cc3)c3ccccc32)cc(OC(=O)N2CCOCC2)c1 [Example 52, 3-[4-(1,1-dimethylethyl)phenyl]-1-({3-{[2-(methyloxy)ethyl]oxy}-5-[(4-morpholinylcarbonyl)oxy]phenyl}methyl)-1H-indole-2-carboxylic acid] | 20 to 80% | 
COCCOc1cc(Cn2c(C(=O)O)c(-c3ccc(C(C)(C)C)cc3)c3ccccc32)cc(OC(=O)N2CCCCC2)c1 [Example 51, 3-[4-(1,1-dimethylethyl)phenyl]-1-({3-{[2-(methyloxy)ethyl]oxy}-5-[(1-piperidinylcarbonyl)oxy]phenyl}methyl)-1H-indole-2-carboxylic acid] | 20 to 80% | 
COCCOc1cc(Cn2c(C(=O)O)c(-c3ccc(C(C)(C)C)cc3)c3ccccc32)cc(-c2ccc(C(=O)O)cc2)c1 [Example 20] | 20 to 80% | 
CN(C)CCCOc1cc(Cn2c(C(=O)O)c(-c3ccc(C(C)(C)C)cc3)c3ccccc32)cc(OCC2CC2)c1 [Example 43, 1-[(3-[(cyclopropylmethyl)oxy]-5-{[3-(dimethylamino)propyl]oxy}phenyl)methyl]-3-[4-(1,1-dimethylethyl)phenyl]-1H-indole-2-carboxylic acid] | 20 to 80% | 
COc1ccc(-c2c(C(=O)O)n(Cc3cc(-c4ccc(C(=O)O)cc4)ccc3C)c3ccccc23)cn1 [Example 21, 1-[(4′-carboxy-4-methyl-3-biphenylyl)methyl]-3-[6-(methyloxy)-3-pyridinyl]-1H-indole-2-carboxylic acid] | 20 to 80% | 
COc1cc(Cn2c(C(=O)O)c(-c3ccc(C(C)(C)C)cc3)c3ccccc32)cc(OCC2CC2)c1 [Example 4, 1-{[3-[(cyclopropylmethyl)oxy]-5-(methyloxy)phenyl]methyl}-3-[4-(1,1-dimethylethyl)phenyl]-1H-indole-2-carboxylic acid] | 20 to 80% | 
CC(C)(C)c1ccc(-c2c(C(=O)O)n(Cc3cccc(N4CCOCC4)c3)c3ccccc23)cc1 [Example 26, 3-[4-(1,1-dimethylethyl)phenyl]-1-{[3-(4-morpholinyl)phenyl]methyl}-1H-indole-2-carboxylic acid] | 20 to 80% | 
CC(C)CCOc1cc(Cn2c(C(=O)O)c(-c3ccc(C(C)(C)C)cc3)c3ccccc32)cc(OCC2CC2)c1 [Example 6, 1-({3-[(cyclopropylmethyl)oxy]-5-[(3-methylbutyl)oxy]phenyl}methyl)-3-[4-(1,1-dimethylethyl)phenyl]-1H-indole-2-carboxylic acid] | 20 to 80% | 
CC(C)(C)c1ccc(-c2c(C(=O)O)n(Cc3cccc(N4CCS(=O)(=O)CC4)c3)c3ccccc23)cc1 [Example 45, 3-[4-(1,1-dimethylethyl)phenyl]-1-{[3-(1,1-dioxido-4-thiomorpholinyl)phenyl]methyl}-1H-indole-2-carboxylic acid] | 20 to 80% | 
Cc1ccc(N2CCOCC2)cc1Cn1c(C(=O)O)c(-c2ccc(C(C)(C)C)cc2)c2ccccc21 [Example 27, 3-[4-(1,1-dimethylethyl)phenyl]-1-{[2-methyl-5-(4-morpholinyl)phenyl]methyl}-1H-indole-2-carboxylic acid] | 20 to 80% | 
CC(C)(C)c1ccc(-c2c(C(=O)O)n(Cc3cccc(-c4ccc(OCc5ccccc5)cc4)c3)c3ccccc23)cc1 [Example 8, 3-[4-(1,1-dimethylethyl)phenyl]-1-({4′-[(phenylmethyl)oxy]-3-biphenylyl}methyl)-1H-indole-2-carboxylic acid] | 20 to 80% | 
Cc1ccc(-c2ccc(C(=O)N(C)C)cc2)cc1Cn1c(C(=O)O)c(-c2ccc(C(C)(C)C)cc2)c2ccccc21 [Example 28, 1-({4′-[(dimethylamino)carbonyl]-4-methyl-3-biphenylyl}methyl)-3-[4-(1,1-dimethylethyl)phenyl]-1H-indole-2-carboxylic acid] | 20 to 80% | 
CNC(=O)c1cccc(-c2ccc(C)c(Cn3c(C(=O)O)c(-c4ccc(C(C)(C)C)cc4)c4ccccc43)c2)c1 [Example 29, 3-[4-(1,1-dimethylethyl)phenyl]-1-({4-methyl-3′-[(methylamino)carbonyl]-3-biphenylyl}methyl)-1H-indole-2-carboxylic acid] | 20 to 80% | 
CC(C)(C)c1ccc(-c2c(C(=O)O)n(Cc3cc(OCc4ccccc4)cc(OCC4CC4)c3)c3ccccc23)cc1 [Example 1, 1-({3-[(cyclopropylmethyl)oxy]-5-[(phenylmethyl)oxy]phenyl}methyl)-3-[4-(1,1-dimethylethyl)phenyl]-1H-indole-2-carboxylic acid] | 20 to 80% | 
CSc1ccc(-c2cccc(Cn3c(C(=O)O)c(-c4ccc(C(C)(C)C)cc4)c4ccccc43)c2)cc1 [Example 23, 3-[4-(1,1-dimethylethyl)phenyl]-1-{[4′-(methylthio)-3-biphenylyl]methyl}-1H-indole-2-carboxylic acid] | 20 to 80% | 
CC(C)(C)c1ccc(-c2c(C(=O)O)n(Cc3cc(C(F)(F)F)cc(C(F)(F)F)c3)c3ccccc23)cc1 [Example 63, 1-{[3,5-bis(trifluoromethyl)phenyl]methyl}-3-[4-(1,1-dimethylethyl)phenyl]-1H-indole-2-carboxylic acid] | 20 to 80% | 
COC(=O)N1CCN(c2cccc(Cn3c(C(=O)O)c(-c4ccc(C(C)(C)C)cc4)c4ccccc43)c2)CC1 [Example 36, 3-[4-(1,1-dimethylethyl)phenyl]-1-[(3-{4-[(methyloxy)carbonyl]-1-piperazinyl}phenyl)methyl]-1H-indole-2-carboxylic acid] | 20 to 80% | 
CN(C)CCOc1cc(Cn2c(C(=O)O)c(-c3ccc(C(C)(C)C)cc3)c3ccccc32)cc(OCC2CC2)c1 [Example 40, 1-[(3-[(cyclopropylmethyl)oxy]-5-{[2-(dimethylamino)ethyl]oxy}phenyl)methyl]-3-[4-(1,1-dimethylethyl)phenyl]-1H-indole-2-carboxylic acid] | 20 to 80% | 
COCCOc1cc(Cn2c(C(=O)O)c(-c3ccc(C(C)(C)C)cc3)c3ccccc32)cc(OC(=O)N2CCN(C)CC2)c1 [Example 50, 3-[4-(1,1-dimethylethyl)phenyl]-1-[(3-{[2-(methyloxy)ethyl]oxy}-5-{[(4-methyl-1-piperazinyl)carbonyl]oxy}phenyl)methyl]-1H-indole-2-carboxylic acid] |  | 20 to 80%
CSc1cccc(-c2ccc(C)c(Cn3c(C(=O)O)c(-c4ccc(C(C)(C)C)cc4)c4ccccc43)c2)c1 [Example 17, 3-[4-(1,1-dimethylethyl)phenyl]-1-{[4-methyl-3′-(methylthio)-3-biphenylyl]methyl}-1H-indole-2-carboxylic acid] | 20 to 80% | 
